# ± gives the expanded uncertainty stated by the source.
# Test: molar enthalpy of vaporization or sublimation
# Conditions: 298.15 K; Crystal; Static calorimetry
row,Structure (SMILES),molar enthalpy [kcal/mol]
1,CC(=O)c1cccc(C#N)c1 [3-acetylbenzonitrile],22.6 ± 0.359
2,N#CCC(=O)c1ccccc1 [3-oxo-3-phenylpropanenitrile],23.5 ± 0.502

# From the NIST ThermoML archive (doi:10.1016/j.jct.2015.08.008)
